Measurements: publication PMC10746280, “Bacterial efflux pump modulators prevent bacterial growth in macrophages and under broth conditions that mimic the host environment” (mBio, 2023)

How the values were obtained:
[1] = tested on: S. Typhimurium SL1344 (sifB::gfp) in RAW 264.7 macrophages; test: SAFIRE macrophage assay: intracellular bacterial load (GFP signal within macrophages); assay type: cell-based, Salmonella enterica serotype Typhimurium; settings: for IC50: Salmonella enterica, TYPHIMURIUM, RAW264.7, read-out: SAFIRE IC50
Outline: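 RAW 264.7 macrophages infected with S. Typhimurium SL1344 sifB::gfp (MOI ~30), gentamicin 40 µg/mL, then compound from 2 h to 18 h post-infection. Confocal imaging with MitoTracker and DAPI; toxicity as adherent MitoTracker-positive macrophage count, bacterial load as GFP+ macrophage area.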

S. Typhimurium = test: Checkerboard growth assays with antibiotics in LPM 5.5 (FICI and MuSyC analyses); assay type: cell-based; set-up: Antibiotic MIC Combination: unit not given here; EPM MIC Combination: unit: µM; settings: for log10(α1) [95% CI] (log-fold-change in potency of EPM due to the antibiotic) / log10(α2) [95% CI] (log-fold-change in potency of the antibiotic due to the EPM) / Βobs [95% CI] (proportion increase in maximal efficacy of the antibiotic): MuSyC fit; for Antibiotic MIC Combination / EPM MIC Combination / FICI value: LPM 5.5
Description: To examine whether the EPM analogs interact additively or synergistically with antibiotics, checkerboard growth assays were carried out in LPM 5.5. We compared three antibiotics (ciprofloxacin, doxycycline, erythromycin) and three EPM analogs (CU032, CU187, CU232) and the EPM35 parent compound (Fig. 6A). Standard fractional inhibitory concentration index (FICI) analyses supported synergy between the EPM analogs and ciprofloxacin (Fig. 6B). Since FICI values cannot distinguish between synergy due to changes in potency (activity) versus efficacy (the extent of the effect) ([42], [43]), we used the MuSyC synergy algorithm to measure EPM-antibiotic synergy ([44], [45]). The data were well fit by the MuSyC equation, with an R^2 of greater than 0.96 for all checkerboards (Table S2). […] Moreover, the consistency in the synergy of potency values across the antibiotics with different EPM analogs points toward a shared mechanism of action: the EPMs could modify the pharmacodynamics of the efflux process and prevent export of specific substrates through interactions with AcrB. We posit that the EPMs differentially reduce antibiotic export resulting in a higher effective intracellular concentration of the antibiotic.
Overnight cation-adjusted MHB-grown cultures of SL1344 or SA10801 were diluted in MHB or LPM 5.5 to an optical density at 600 nm (OD600) of 0.01 and distributed into polystyrene 96-well flat-bottom plates. EPM analogs were added at concentrations up to 300 µM, near the limit of solubility. The antibiotics ciprofloxacin, doxycycline, and erythromycin were added up to concentrations of 2 µM, 2 µM, and 8 µM, respectively. The final DMSO concentration was at or below 2% in all wells. Plates were grown at 37°C with shaking for 18 h and OD600 was monitored (BioTek Synergy H1, BioTek Eon). Each experiment was performed with biological triplicate or higher as indicated. Percent growth was determined by normalizing to OD600 reads in wells containing no D66 or antibiotic. Checkerboards in LPM 5.5 medium were performed with culture grown overnight in LB and diluted to an OD600 of 0.01 in LPM 5.5 and compounds/antibiotics were added as previously described. MuSyC analysis was pursued as previously described ([44], [45]). Briefly, the 2D Hill equation was fit to the normalized growth inhibition data from the checkerboards using a bounded non-linear least square regression algorithm. A Monte Carlo sampling method was used to compute the 95% CI in the parameter fits from three biological replicates. The bounds on the parameters minimal and maximal efficacy of the antibiotics and EPMs (E0,Emax) were [0.99,1.01] and [0,1], respectively ([44], [45]).

[2] = 5 uM compound, n=1, DMSO solvent control = 98, rifampicin 2 μg/mL = 65
[3] = 25 uM compound, n=1, DMSO solvent control = 98, rifampicin 2 μg/mL = 65
[4] = ciprofloxacin (CIPRO) MIC in combination with the EPM
[5] = doxycycline (DOXY) MIC in combination with the EPM
[6] = 25 uM, 'Toxic' given instead of a score

Compound | 5 uM Avg Antibacterial Score [1, 2] | 25 uM Avg Antibacterial Score [1, 3] | IC50 [1] | log10(α1) [95% CI] (log-fold-change in potency of EPM due to the antibiotic) (S. Typhimurium; Ciprofloxacin) | log10(α2) [95% CI] (log-fold-change in potency of the antibiotic due to the EPM) (S. Typhimurium; Ciprofloxacin) | Βobs [95% CI] (proportion increase in maximal efficacy of the antibiotic) (S. Typhimurium; Ciprofloxacin) | log10(α1) [95% CI] (log-fold-change in potency of EPM due to the antibiotic) (S. Typhimurium; Doxycycline) | log10(α2) [95% CI] (log-fold-change in potency of the antibiotic due to the EPM) (S. Typhimurium; Doxycycline) | Βobs [95% CI] (proportion increase in maximal efficacy of the antibiotic) (S. Typhimurium; Doxycycline) | log10(α1) [95% CI] (log-fold-change in potency of EPM due to the antibiotic) (S. Typhimurium; Erythromycin) | log10(α2) [95% CI] (log-fold-change in potency of the antibiotic due to the EPM) (S. Typhimurium; Erythromycin) | Βobs [95% CI] (proportion increase in maximal efficacy of the antibiotic) (S. Typhimurium; Erythromycin) | Antibiotic MIC Combination (S. Typhimurium; [4]) | Antibiotic MIC Combination (S. Typhimurium; [5]) | EPM MIC Combination (S. Typhimurium; with ciprofloxacin (CIPRO)) | FICI value (S. Typhimurium; with ciprofloxacin (CIPRO)) | EPM MIC Combination (S. Typhimurium; with doxycycline (DOXY)) | FICI value (S. Typhimurium; with doxycycline (DOXY)) | EPM MIC Combination (S. Typhimurium; with erythromycin (ERY)) | FICI value (S. Typhimurium; with erythromycin (ERY)) | other results
NC1CCN(CC(O)COc2cccc(C(F)(F)F)c2)CC1 (stereo not drawn) [CU232] | 37 | 21 | 6.9 nM | 0.34 [0.18,0.38] | 1.87 [1.73,1.85] | 0.0 [-0.02,0.03] | 0.14 [-0.23,0.33] | 0.16 [0.06,0.19] | 0.02 [-0.01,0.02] | -0.02 [-0.35,-0.05] | 1.38 [1.11,1.44] | 0.06 [0.05,0.07] | 1 | 2 | 44 | 0.4 | 100 | 0.58 | 100 | 0.58 | –
OC(COc1ccc(Cl)c(Cl)c1)CN1CCC(Nc2nccc(C(F)(F)F)n2)CC1 (stereo not drawn) [EPM35] | – | – | 3450 nM | 0.58 [0.17,0.77] | -0.12 [-0.22,0.03] | 0.01 [-0.01,0.01] | 0.7 [0.41,0.87] | 0.43 [0.31,0.39] | -0.01 [-0.04,-0.01] | 0.49 [0.15,0.74] | -0.01 [-0.06,0.03] | 0.01 [-0.01,0.01] | 1 | 2 | 150 | 0.7 | 150 | 1 | 150 | 1 | 25 uM Avg Antibacterial Score [1, 6]: Toxic; synergy with antibiotics (S. Typhimurium; checkerboards in LPM 5.5): did not synergize with the antibiotics
NC1CCN(CC(O)COc2ccc(Cl)c(Cl)c2)C1 (stereo not drawn) [CU032] | – | – | 17.4 nM | 0.0 [-0.42,0.07] | 1.52 [1.32,1.56] | 0.07 [0.05,0.1 ] | -0.06 [-0.3,0.04] | 0.25 [0.17,0.28] | 0.0 [-0.01,0.01] | 0.08 [-0.23,0.05] | 1.11 [0.98,1.11] | 0.04 [0.04,0.07] | 1 | 2 | 30 | 0.35 | 100 | 0.55 | 100 | 0.58 | 5 uM Avg Antibacterial Score ([1]; 5 uM, 'Toxic' given instead of a score): 55; 25 uM Avg Antibacterial Score [1, 6]: 21
OC(CN[C@H]1[C@@H]2CNC[C@@H]21)COc1cc(Cl)cc(Cl)c1 (stereo partly drawn) [CU244] | 48 | 19 | 372 nM | – | – | – | – | – | – | – | – | – | – | – | – | – | – | – | – | – | –
